PMC10182447 (BioImpacts : BI, 2022)

Target: Human serum albumin (HSA) (Homo sapiens, UniProt P02768)
Assay: fluorescence quenching titration
Format: binding

Chain of Human serum albumin (HSA) (P02768 25-609): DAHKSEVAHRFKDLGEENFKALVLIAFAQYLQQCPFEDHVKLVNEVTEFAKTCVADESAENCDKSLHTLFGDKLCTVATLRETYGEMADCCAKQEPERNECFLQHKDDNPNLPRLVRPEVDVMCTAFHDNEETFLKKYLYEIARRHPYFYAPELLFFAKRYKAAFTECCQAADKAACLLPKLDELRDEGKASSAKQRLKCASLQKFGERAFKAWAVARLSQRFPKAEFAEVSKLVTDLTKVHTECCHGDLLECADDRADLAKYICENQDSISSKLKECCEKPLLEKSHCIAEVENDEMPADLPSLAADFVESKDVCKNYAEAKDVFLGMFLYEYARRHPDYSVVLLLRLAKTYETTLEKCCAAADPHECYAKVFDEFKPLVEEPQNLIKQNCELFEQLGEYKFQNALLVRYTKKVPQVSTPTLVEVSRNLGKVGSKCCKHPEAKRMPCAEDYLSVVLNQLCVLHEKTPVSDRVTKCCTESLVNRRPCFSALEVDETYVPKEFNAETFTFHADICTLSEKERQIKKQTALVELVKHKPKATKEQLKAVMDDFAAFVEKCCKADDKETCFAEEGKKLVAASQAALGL

Kd: 235 µM
SMILES: CCCCCCCCc1ccc(CCC(N)(CO)CO)cc1 [Fingolimod]
